Data set [1] has as its target T1, Growth hormone secretagogue receptor type 1 (Homo sapiens, UniProt Q92847). As to the kind of experiment: Binding affinity to human ghrelin receptor by receptor binding assay.
The species entered for data set [2] is Mus musculus. As to the kind of experiment: Reduction in fat content in mouse. Type of data set: functional. Details: scale not given: the % may be the effect or the level left.
The nature of data set [3]: Oral bioavailability in rat. In kind it is ADME, organism-based. As to conditions: in vivo.
The target in data set [4] is T1, Growth hormone secretagogue receptor type 1. Briefly: Antagonist activity against human ghrelin receptor by FLIPR assay.
Data set [5] is described as follows: Unbound fraction rat brain. In kind it is ADME, tissue-based.
Data set [6] concerns Mus musculus. As to the kind of experiment: Reduction in food intake in C57BL/6J mouse at 30 mg/kg, ip after 2 hrs. Conditions: route intraperitoneal. In kind it is functional.

T1 sequence (Q92847 whole entry): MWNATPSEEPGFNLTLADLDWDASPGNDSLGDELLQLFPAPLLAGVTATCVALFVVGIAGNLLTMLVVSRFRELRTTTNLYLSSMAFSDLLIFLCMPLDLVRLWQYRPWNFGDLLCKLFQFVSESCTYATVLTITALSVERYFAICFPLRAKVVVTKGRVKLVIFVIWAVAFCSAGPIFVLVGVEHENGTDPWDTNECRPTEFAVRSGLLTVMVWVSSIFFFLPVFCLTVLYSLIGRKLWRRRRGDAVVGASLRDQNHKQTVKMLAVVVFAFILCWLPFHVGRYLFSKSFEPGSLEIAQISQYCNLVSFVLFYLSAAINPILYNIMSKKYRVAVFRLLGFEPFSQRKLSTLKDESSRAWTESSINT

As to `CCN(CC)CCCS(=O)(=O)N[C@H](CCc1ccccc1)c1nc(-c2ccc(OC)cc2)n[nH]1`, the Ki in data set [1] was determined as 15 nM. Further, the Activity in the data set listed under Mus musculus [2] was 50%. Also, the bioavailability in data set [3] is 63%.
For `CN1CCN([C@@H](C(=O)NNc2cc(C(F)(F)F)cc(C(F)(F)F)c2)c2ccccc2Cl)CC1`, inhibition in data set [4] was half-maximal at 6.31 nM (IC50). This compound registered a Fu in data set [5] of 0.2%.
In data set [4], `O=C(NNc1cc(C(F)(F)F)cc(C(F)(F)F)c1)[C@@H](c1cccnc1)N1CCN2CCC[C@@H]2C1` showed an IC50 of 3.98 nM.
Regarding `CC(NC(=O)N(Cc1ccccc1Cl)C1CCN(C)CC1)c1cccc(Cl)c1Cl` (configuration not stated), the inhibition in vivo at 30 mg/kg in the data set on Mus musculus [6] came to 70%.

(Values after ChEMBL document CHEMBL3352790, “Small molecule ghrelin receptor inverse agonists and antagonists” (J Med Chem, 2014).)
